The source of these data is publication PMC5769128, “Human UDP-Glucuronosyltransferase 2B4 and 2B7 Are Responsible for Naftopidil Glucuronidation in Vitro” (Frontiers in Pharmacology, 2018).

The nature of data set [1]: Kinetics of NAF enantiomer glucuronidation by human liver microsomes. Format: in vitro ADME. The conditions noted are these: human, human liver microsomes, pH 7.5; NAF glucuronidation by HLM; 2.5–80 μM substrate, 45 min. The protocol:
(§1) All glucuronidation assays were conducted in an incubation volume of 200 μL. Incubations were performed at 37°C in 50 mM Tris–HCl buffer (pH 7.5) with 10 mM magnesium chloride, 1 mg protein/mL of enzyme (microsomes and recombinant human UGTs), alamethicin (100 μg of alamethicin/mg microsomal protein), and NAF enantiomers (2.5–80 μM). The reaction was initiated by the addition of UDPGA (5 mM) and incubated at 37°C in a shaking water bath for 45 min. The reaction was terminated by the addition of 200 μL of ice-cold acetonitrile containing the IS (1 μM) and then centrifuged at 5000 ×g for 10 min at 4°C. The supernatant fraction was injected into the RRLC-MS/MS apparatus. Protein concentration (0.5–2 mg/mL) and incubation time (15–180 min) were optimized in preliminary studies to be within initial linear rate conditions.
(§2) Kinetic parameters were assessed in the HLM, RLM, HKM, RKM, and recombinant human UGTs (UGT2B4, 2B7, and 1A9).

Data set [2] has as its system human liver microsomes (HLM). The data set is described as above. Type of data set: in vitro ADME. The method, then:
as §1, §2

The nature of data set [3]: Kinetics of NAF enantiomer glucuronidation by human kidney microsomes. Type of data set: in vitro ADME. The conditions noted are these: human, human kidney microsomes, pH 7.5; NAF glucuronidation by HKM. The method, then: as §1, §2
For data set [4], the system named is human kidney microsomes (HKM). The data set is described as above. Type of data set: in vitro ADME. The method, then:
as §1, §2

Data set [5] concerns the target T1, UGT2B17 (Homo sapiens, UniProt O75795).
T1 construct: purchased BD Gentest
T1 sequence (O75795 24-530): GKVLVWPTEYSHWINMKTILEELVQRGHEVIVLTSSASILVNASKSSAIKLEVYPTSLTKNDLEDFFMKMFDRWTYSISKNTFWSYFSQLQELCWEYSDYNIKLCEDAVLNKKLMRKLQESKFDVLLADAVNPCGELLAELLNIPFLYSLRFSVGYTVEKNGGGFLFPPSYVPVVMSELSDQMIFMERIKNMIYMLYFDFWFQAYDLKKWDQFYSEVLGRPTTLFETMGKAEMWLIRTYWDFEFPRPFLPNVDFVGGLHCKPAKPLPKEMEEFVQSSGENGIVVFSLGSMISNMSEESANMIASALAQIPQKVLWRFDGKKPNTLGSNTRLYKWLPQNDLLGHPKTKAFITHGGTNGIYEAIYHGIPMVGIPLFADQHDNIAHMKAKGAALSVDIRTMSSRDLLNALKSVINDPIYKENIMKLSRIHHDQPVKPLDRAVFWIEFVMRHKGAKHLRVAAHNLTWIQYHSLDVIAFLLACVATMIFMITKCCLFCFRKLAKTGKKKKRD
Nature of the data set: Inhibition screening of recombinant UGTs by NAF enantiomers, UGT2B17 (4-MU). Type of data set: in vitro ADME. The conditions noted are these: recombinant UGT2B17, probe 4-MU, 100 μM NAF enantiomer, read-out: Inhibition of 4-MU-G formation. The method, then:
The inhibition screening study was performed by investigating the 12 recombinant UGTs with 10 and 100 μM NAF enantiomer. […] 4-MU, as a non-specific substrate, was added to the other incubated samples. Instead of NAF enantiomers, the same volume of water was added to be the control sample. […] The formation of 4-MU-G and TFP-G produced from the 12 incubation system were analyzed by HPLC. The instrument parameters for the LC were as follows: system, Agilent 1260; Agilent Eclipse Plus C18 (2.1 mm × 50 mm, 1.8 μm, Santa Clara, CA, United States); mobile phase, methanol: 0.1% formic acid in water (0–3 min, 35:65; 3.1–4.5 min, 65:35; 4.6–5 min, 35:65); flow rate, 0.4 mL/min; column temperature, 25°C; and injection volume, 2 μL. The retention times of 4-MU, 4-MU-G, TFP, TFP-G, and MU (IS) were 1.5, 0.5, 2.2, 1.8, and 1.0 min, respectively.

For data set [6], the target named is T2, recombinant human UGT1A10 (Homo sapiens, UniProt Q9HAW8).
T2 sequence (Q9HAW8 26-530): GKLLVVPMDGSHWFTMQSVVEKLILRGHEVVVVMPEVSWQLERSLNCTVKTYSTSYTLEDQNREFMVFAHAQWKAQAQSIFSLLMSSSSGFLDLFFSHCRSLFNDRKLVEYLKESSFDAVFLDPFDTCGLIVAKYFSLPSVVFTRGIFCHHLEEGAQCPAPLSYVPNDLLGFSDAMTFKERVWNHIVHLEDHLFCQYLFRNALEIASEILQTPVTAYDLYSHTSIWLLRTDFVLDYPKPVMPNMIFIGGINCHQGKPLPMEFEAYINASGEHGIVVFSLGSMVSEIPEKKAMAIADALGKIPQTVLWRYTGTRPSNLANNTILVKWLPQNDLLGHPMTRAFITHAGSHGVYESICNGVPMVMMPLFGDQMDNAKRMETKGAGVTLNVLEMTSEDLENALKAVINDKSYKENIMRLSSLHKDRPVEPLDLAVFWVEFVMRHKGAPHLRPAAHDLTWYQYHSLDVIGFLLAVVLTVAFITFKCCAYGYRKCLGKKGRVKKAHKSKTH
Nature of the data set: UGT reaction screening of NAF enantiomers, UGT1A10. The conditions noted are these: 10 μM substrate, 45 min.

Data set [7] deals with T3, UGT2B7 (Homo sapiens, UniProt P16662).
T3 sequence (P16662 24-529): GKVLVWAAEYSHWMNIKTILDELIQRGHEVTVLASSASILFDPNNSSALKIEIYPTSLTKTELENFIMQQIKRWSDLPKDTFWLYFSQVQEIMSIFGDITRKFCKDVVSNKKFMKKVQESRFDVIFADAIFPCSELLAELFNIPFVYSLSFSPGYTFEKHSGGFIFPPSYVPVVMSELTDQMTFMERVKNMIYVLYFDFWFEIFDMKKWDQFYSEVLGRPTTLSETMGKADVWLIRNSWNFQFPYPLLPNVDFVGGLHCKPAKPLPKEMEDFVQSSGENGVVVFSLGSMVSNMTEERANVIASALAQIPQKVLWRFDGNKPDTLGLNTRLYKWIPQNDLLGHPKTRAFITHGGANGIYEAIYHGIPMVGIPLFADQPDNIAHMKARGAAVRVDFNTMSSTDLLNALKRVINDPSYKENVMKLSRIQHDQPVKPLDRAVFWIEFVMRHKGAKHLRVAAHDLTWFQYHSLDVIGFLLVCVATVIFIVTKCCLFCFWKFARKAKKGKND
Nature of the data set: Inhibition of zidovudine glucuronidation in pooled HLM. The note with it: substrate zidovudine, enzyme HLM. Also on record: tissue BD Gentest; host or cells: pooled human liver microsomes. Format: in vitro ADME.

One may read the Km as the concentration of substrate that gives half-maximal velocity. The term inhibition denotes the relative decrease from the control value, in per cent. One may read the Ki as the equilibrium dissociation constant of an inhibitor or competing ligand from its target. A high value points to lower affinity.

Consider `COc1ccccc1N1CCN(C[C@H](O)COc2cccc3ccccc23)CC1` [S(-)-NAF], for which the Michaelis constant (Km) at 45 min was 19 µM in data set [1] and 35 µM in data set [3]. The Kinetics type entry in data set [2] was “Michaelis–Menten model”; in data set [4], “substrate inhibition model”. In addition, the inhibition at 100 μM in data set [5] was over 75%. In addition, the “Glucuronide formation by UGT1A10” value in data set [6] is recorded as “no activity”. In addition, in data set [7], the Inhibition type result is on record as “Competitive”. Moreover, the affinity in data set [7], expressed as Ki, was 35.7 ± 4.1 µM.

Turning to `COc1ccccc1N1CCN(C[C@@H](O)COc2cccc3ccccc23)CC1` [R(+)-NAF], the Michaelis constant (Km) at 45 min came out at 48 µM in data set [1] and 40 µM in data set [3]. Further, the Kinetics type result in data set [2] and in data set [4] was “Michaelis–Menten model” in each case. Further, in data set [5], the inhibition at 100 μM is over 75%. Besides, the “Glucuronide formation by UGT1A10” value in data set [6] is recorded as “No R(+)-NAF-G was detected”. In addition, the Inhibition type entry in data set [7] is “Competitive”. Moreover, the inhibitory constant (Ki) in data set [7] amounted to 64.9 ± 7.8 µM.
